From patent publication US20240277860A1, “CAMPTOTHECIN PEPTIDE CONJUGATES” (priority 2019, published 2024)
Where two headings read alike, the source gives them in different places.

Tests used:
Type in all cases: cell-based
[1] = test system: Burkitt's lymphoma cells (Ramos); test: In vitro potency, CellTiter-Glo growth inhibition, Ramos; conditions: Homo sapiens, 96 h, read-out: IC50 Ramos
Method: (§1) In vitro potency was assessed on multiple cancer cell lines. All cell lines were authenticated by STR profiling at IDEXX Bioresearch and cultured for no more than 2 months after resuscitation. Cells cultured in log-phase growth were seeded for 24 hours in 96-well plates containing 150 μl RPMI 1640 supplemented with 20% FBS. Serial dilutions of antibody-drug conjugates in cell culture media were prepared at 4× working concentrations, and 50 μl of each dilution was added to the 96-well plates. Following addition of test articles, cells were incubated with test articles for 4 days at 37° C. After 96 hours, growth inhibition was assessed by CellTiter-Glo® (Promega, Madison, WI) and luminescence was measured on a plate reader. The IC50 value, determined in triplicate, is defined here as the concentration that results in 50% reduction in cell growth relative to untreated controls.
(§2) In the following Tables IC50 values for ADCs and campthothecin free drugs are given in ng/mL and […] concentrations, respectively. Cell viability was determined by CellTiter-Glo staining after 96 h exposure to ADC. ND=Not Determined. Ag1 is an antibody targeting a ubiquitous and readily internalizable antigen on cancer cells.

[2] = test system: MDR(+) acute promyelocytic leukemia cells (HL60/RV); test: In vitro potency, CellTiter-Glo growth inhibition, HL60/RV; conditions: Homo sapiens, read-out: IC50 HL60/RV
Method: as §1, §2

[3] = test system: B-lymphocyte cancer cells (U266); test: In vitro potency, CellTiter-Glo growth inhibition, U-266; conditions: Homo sapiens, read-out: IC50 U-266
Method: as §1, §2

[4] = test system: Hodgkin's lymphoma cells (L540cy); test: In vitro potency, CellTiter-Glo growth inhibition, L540cy; conditions: 96 h, read-out: IC50 L540cy
Method: as §1, §2

[5] = test system: B-lymphocyte cancer cells (SU-DHL-4); test: In vitro potency, CellTiter-Glo growth inhibition, SU-DHL-4; conditions: Homo sapiens, read-out: IC50 SU-DHL-4
Method: as §1, §2

[6] = test system: multiple myeloma cells (MM.1R); test: In vitro potency, CellTiter-Glo growth inhibition, MM.1R; conditions: 96 h, read-out: IC50 MM.1R
Method: as §1, §2

[7] = test system: renal carcinoma cells (786-O); test: In vitro potency, CellTiter-Glo growth inhibition, 786-O; conditions: Homo sapiens, read-out: IC50 786-O
Method: as §1, §2

[8] = test system: acute myeloid leukemia cells (MOLM13); test: In vitro potency, CellTiter-Glo growth inhibition, MOLM-13; conditions: Homo sapiens, read-out: IC50 MOLM-13
Method: as §1, §2

[9] = test system: MDR(−) acute promyelocytic leukemia cells (HL-60); test: In vitro potency, CellTiter-Glo growth inhibition, HL-60; conditions: Homo sapiens, read-out: IC50 HL-60
Method: as §1, §2

[10] = test system: melanoma cells (SK-MEL-5); test: In vitro potency, CellTiter-Glo growth inhibition, SK-MEL-5; conditions: Homo sapiens, read-out: IC50 SK-MEL-5
Method: as §1, §2

[11] = test system: pancreatic cancer cells (BxPC3); test: In vitro potency, CellTiter-Glo growth inhibition, BxPC3; conditions: Homo sapiens, read-out: IC50 BxPC3
Method: as §1, §2

[12] = camptothecin free drugs, CellTiter-Glo
[13] = HL-60, camptothecin free drugs, 96 h, CellTiter-Glo
[14] = U-266, camptothecin free drugs, 96 h, CellTiter-Glo
[15] = SU-DHL-4, camptothecin free drugs, 96 h, CellTiter-Glo
[16] = 786-0, camptothecin free drugs, 96 h, CellTiter-Glo
[17] = MOLM-13, camptothecin free drugs, 96 h, CellTiter-Glo
[18] = SK-MEL-5, camptothecin free drugs, 96 h, CellTiter-Glo
[19] = BXPC-3, camptothecin free drugs, 96 h, CellTiter-Glo

Compound | IC50 [1] [µM] | IC50 ([2]; HL-60, 96 h) [µM] | IC50 ([3]; U-266, 96 h) [µM] | IC50 [4] [µM] | IC50 ([5]; SU-DHL-4, 96 h) [µM] | IC50 [6] [µM] | IC50 ([7]; 786-0, 96 h) [µM] | IC50 ([8]; MOLM-13, 96 h) [µM] | IC50 ([9]; HL-60, 96 h) [µM] | IC50 ([10]; SK-MEL-5, 96 h) [µM] | IC50 ([11]; BXPC-3, 96 h) [µM] | IC50 [1, 12] [µM] | IC50 [2, 13] [µM] | IC50 [3, 14] [µM] | IC50 [4, 12] [µM] | IC50 [5, 15] [µM] | IC50 [6, 12] [µM] | IC50 [7, 16] [µM] | IC50 [8, 17] [µM] | IC50 [9, 13] [µM] | also measured
CC[C@@]1(O)C(=O)OCc2c1cc1n(c2=O)Cc2c-1nc1cc3c(cc1c2CNC(=O)[C@@H](N)CC(C)C)OCO3 [Compound 3] | 0.002 | 0.194 | 0.006 | 0.005 | 0.003 | 0.004 | > 1 | 0.008 | 0.03 | 0.015 | 0.009 | – | – | – | – | – | – | – | – | – | –
CC[C@@]1(O)C(=O)OCc2c1cc1n(c2=O)Cc2c-1nc1cc3c(cc1c2CNC(=O)[C@H](C)N)OCO3 [Compound 3a] | 0.006 | 0.416 | 0.02 | 0.012 | 0.008 | 0.008 | 0.381 | 0.023 | 0.106 | 0.049 | 0.042 | – | – | – | – | – | – | – | – | – | –
CC[C@@]1(O)C(=O)OCc2c1cc1n(c2=O)Cc2c-1nc1cc3c(cc1c2CNC(=O)[C@@H](N)C(C)C)OCO3 [Compound 3b] | 0.001 | 0.857 | 0.008 | 0.006 | 0.002 | 0.004 | > 1 | 0.005 | 0.023 | 0.014 | 0.012 | – | – | – | – | – | – | – | – | – | –
CC[C@@]1(O)C(=O)OCc2c1cc1n(c2=O)Cc2c-1nc1cc3c(cc1c2CNC(=O)C(C)(C)N)OCO3 [Compound 3d] | 0.001 | 0.84 | 0.004 | 0.004 | 0.003 | 0.003 | > 1 | 0.005 | 0.025 | 0.014 | 0.01 | – | – | – | – | – | – | – | – | – | –
CC[C@@]1(O)C(=O)OCc2c1cc1n(c2=O)Cc2c-1nc1cc3c(cc1c2CNC(=O)[C@@H](N)CCSC)OCO3 [Compound 3e] | 0.004 | 0.37 | 0.012 | 0.013 | 0.005 | 0.006 | > 1 | 0.016 | 0.092 | 0.027 | 0.019 | – | – | – | – | – | – | – | – | – | –
CC[C@@]1(O)C(=O)OCc2c1cc1n(c2=O)Cc2c-1nc1cc3c(cc1c2CNC(=O)[C@@H](N)Cc1ccccc1)OCO3 [Compound 3f] | – | – | – | – | – | – | – | – | – | – | – | 0.004 | > 1 | 0.017 | 0.034 | 0.005 | 0.009 | > 1 | 0.014 | 0.088 | IC50 [10, 18]: 0.045 µM; IC50 [11, 19]: 0.039 µM
CC[C@@]1(O)C(=O)OCc2c1cc1n(c2=O)Cc2c-1nc1cc3c(cc1c2CNC(=O)[C@@H](N)CCCNC(=N)N)OCO3 [Compound 3g] | – | – | – | – | – | – | – | – | – | – | – | 0.006 | 0.051 | 0.015 | 0.004 | 0.006 | 0.006 | > 1 | 0.057 | 0.191 | IC50 [10, 18]: 0.034 µM; IC50 [11, 19]: 0.018 µM
CC[C@@]1(O)C(=O)OCc2c1cc1n(c2=O)Cc2c-1nc1cc3c(cc1c2CNC(=O)[C@@H](N)CCCCN)OCO3 [Compound 3h] | 0.012 | 0.128 | 0.036 | 0.007 | 0.014 | 0.013 | > 1 | 0.097 | 0.552 | 0.06 | 0.042 | – | – | – | – | – | – | – | – | – | –
CC[C@@]1(O)C(=O)OCc2c1cc1n(c2=O)Cc2c-1nc1cc3c(cc1c2CNC(=O)[C@@H](N)Cc1c[nH]cn1)OCO3 [Compound 3i] | – | – | – | – | – | – | – | – | – | – | – | 0.197 | > 1 | 0.452 | 0.321 | 0.255 | 0.147 | 0.022 | 0.996 | > 1 | IC50 [10, 18]: 0.414 µM; IC50 [11, 19]: 0.331 µM
CC[C@@]1(O)C(=O)OCc2c1cc1n(c2=O)Cc2c-1nc1cc3c(cc1c2CNC(=O)[C@@H](N)CC(=O)O)OCO3 [Compound 3j] | 0.099 | > 1 | 0.436 | 0.687 | 0.145 | 0.318 | 0.026 | 0.588 | > 1 | 0.91 | 0.648 | – | – | – | – | – | – | – | – | – | –
CC[C@@]1(O)C(=O)OCc2c1cc1n(c2=O)Cc2c-1nc1cc3c(cc1c2CNC(=O)[C@@H](N)CCC(=O)O)OCO3 [Compound 3k] | – | – | – | – | – | – | – | – | – | – | – | 0.451 | > 1 | > 1 | 0.415 | 0.667 | 0.576 | 0.021 | > 1 | > 1 | IC50 [10, 18]: > 1 µM; IC50 [11, 19]: > 1 µM
CC[C@@]1(O)C(=O)OCc2c1cc1n(c2=O)Cc2c-1nc1cc3c(cc1c2CNC(=O)[C@@H](N)[C@@H](C)O)OCO3 [Compound 3l] | 0.008 | > 1 | 0.057 | 0.027 | 0.016 | 0.022 | > 1 | 0.045 | 0.298 | 0.109 | 0.064 | – | – | – | – | – | – | – | – | – | –
CC[C@@]1(O)C(=O)OCc2c1cc1n(c2=O)Cc2c-1nc1cc3c(cc1c2CNC(=O)[C@@H](N)CCC(N)=O)OCO3 [Compound 3m] | 0.034 | > 1 | 0.086 | 0.076 | 0.071 | 0.03 | 0.051 | 0.125 | 0.823 | 0.208 | 0.16 | – | – | – | – | – | – | – | – | – | –
